This note sets out measurements from PubChem BioAssay (NCI).

Some test systems named below: T-47D breast; A549 NSCLC; NCI-H23 lung; SK-OV-3 ovarian; OVCAR-8 ovarian; A498 renal; HCT-15 colon; HT29 colon; HL-60(TB) leukemia; IGROV1 ovarian; SF-268 CNS; KM12 colon; NCI-H522 lung; LOX IMVI melanoma; SK-MEL-28 melanoma; HCT-116 colon; MDA-MB-435; MCF7 breast; OVCAR-3 ovarian; HCC-2998 colon.
Assay in all cases: DTP human tumour cell line panel, 48 h

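Exposure lasted 48 hours, with cells grown in 96-well plates and compounds tested at five concentrations. TGI marks complete inhibition of growth.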

Turning to `O=C1N/C(=N\N=C\c2ccccc2)C2(CCCCC2)O1`, the TGI in the assay with T-47D breast, in the assay on A549 NSCLC, in the assay with NCI-H23 lung, in the assay with SK-OV-3 ovarian, in the assay on OVCAR-8 ovarian and with A498 renal was greater than 100 µM in each case. The TGI in the assay on HCT-15 colon, with HT29 colon, with HL-60(TB) leukemia, with IGROV1 ovarian, in the assay with SF-268 CNS and in the assay with KM12 colon was greater than 100 µM throughout. The TGI with NCI-H522 lung, in the assay with LOX IMVI melanoma, in the assay with SK-MEL-28 melanoma, in the assay on HCT-116 colon, in the assay on MDA-MB-435 and with MCF7 breast was greater than 100 µM throughout. For the same molecule, the TGI in the assay with OVCAR-3 ovarian and in the assay with HCC-2998 colon was greater than 100 µM throughout.
As to `N#Cc1c(N)nc(SCc2ccccc2)c(C#N)c1-c1ccc(O)cc1`, the TGI in the assay with T-47D breast was 23.4 µM; in the assay with A549 NSCLC, 48.7 µM; in the assay with NCI-H23 lung, 33.2 µM; in the assay on SK-OV-3 ovarian, 31.4 µM; with OVCAR-8 ovarian it was 30.7 µM; in the assay on A498 renal, 30.6 µM. Moreover, the TGI is 30.4 µM with HCT-15 colon; 23.1 µM in the assay with HT29 colon; 32.8 µM in the assay on HL-60(TB) leukemia; 29.9 µM in the assay on IGROV1 ovarian; 66.9 µM with SF-268 CNS; 25.8 µM in the assay on KM12 colon. For the same molecule, the TGI with NCI-H522 lung turned out to be 36.3 µM; in the assay on LOX IMVI melanoma, 43 µM; in the assay on SK-MEL-28 melanoma it was 33 µM; in the assay with HCT-116 colon it was 25.1 µM; in the assay with MDA-MB-435, 25.7 µM; in the assay with MCF7 breast it was 30.6 µM. Also, the TGI with OVCAR-3 ovarian is 33.4 µM; with HCC-2998 colon, greater than 55.6 µM.
Turning to `COC(=O)[C@@H](NC(=O)[C@H](N)Cc1ccc(N(CCCl)CCCl)cc1)C(C)C`, the TGI in the assay on T-47D breast was 35.5 µM; in the assay with A549 NSCLC it was greater than 100 µM; in the assay with NCI-H23 lung it was 16.8 µM; in the assay on SK-OV-3 ovarian, greater than 100 µM; with OVCAR-8 ovarian it was 27.8 µM; in the assay with A498 renal, 48.5 µM. The TGI was 72.8 µM in the assay on HCT-15 colon; greater than 100 µM in the assay on HT29 colon; greater than 51.8 µM in the assay on HL-60(TB) leukemia; 45.1 µM in the assay on IGROV1 ovarian; 97.1 µM in the assay with SF-268 CNS; 66.4 µM in the assay with KM12 colon. In addition, the TGI with NCI-H522 lung was 33.1 µM; in the assay with LOX IMVI melanoma, 37.9 µM; in the assay with SK-MEL-28 melanoma, 40.4 µM; in the assay on HCT-116 colon it was 44.1 µM; in the assay on MDA-MB-435 it was 47.5 µM; with MCF7 breast it was greater than 100 µM. For the same molecule, the figures for the TGI in the assay on OVCAR-3 ovarian and in the assay on HCC-2998 colon were greater than 72.8 µM and 26.5 µM, respectively.
For `CCO[C@@]12CCC3CC4CC[C@@](OCC)(O1)C4C32` (stereo not given in full), the TGI in the assay with T-47D breast, with A549 NSCLC, with NCI-H23 lung, with SK-OV-3 ovarian, in the assay with OVCAR-8 ovarian and with A498 renal was greater than 100 µM in each case. Besides, the TGI with HCT-15 colon, in the assay on HT29 colon, with HL-60(TB) leukemia, with IGROV1 ovarian, with SF-268 CNS and in the assay on KM12 colon was greater than 100 µM each time. Also, the TGI with NCI-H522 lung, in the assay on LOX IMVI melanoma, in the assay on SK-MEL-28 melanoma, with HCT-116 colon, in the assay with MDA-MB-435 and in the assay on MCF7 breast was greater than 100 µM in each case. The TGI with OVCAR-3 ovarian and in the assay on HCC-2998 colon was greater than 100 µM in each case.
Take `COc1ccc(-c2c(-c3ccccc3)c(C)nc3[nH]c(=S)[nH]c(=S)c23)cc1OC`: the TGI in the assay with T-47D breast, in the assay on A549 NSCLC, in the assay on NCI-H23 lung, in the assay with SK-OV-3 ovarian, with OVCAR-8 ovarian and in the assay with A498 renal was greater than 100 µM each time. Moreover, the TGI in the assay on HCT-15 colon was greater than 100 µM; in the assay with HT29 colon it was greater than 100 µM; in the assay with HL-60(TB) leukemia, greater than 100 µM; in the assay with IGROV1 ovarian it was greater than 100 µM; in the assay on SF-268 CNS it was greater than 100 µM; in the assay with KM12 colon it was 42.7 µM. Also, the TGI in the assay with NCI-H522 lung is 85.8 µM; in the assay on LOX IMVI melanoma, greater than 100 µM; in the assay with SK-MEL-28 melanoma it was 52.8 µM; in the assay with HCT-116 colon it was 64.9 µM; in the assay on MDA-MB-435, 74.1 µM; in the assay with MCF7 breast, greater than 100 µM. Further, the TGI was 40.2 µM in the assay on OVCAR-3 ovarian and greater than 100 µM in the assay with HCC-2998 colon.
`CC(C)(C)C1=CC(=C2C=Cc3cc(O)ccc3O2)C=C(C(C)(C)C)C1=O`: the TGI in the assay with T-47D breast was 2.16 µM; with A549 NSCLC it was 3.04 µM; in the assay on NCI-H23 lung, 3.58 µM; in the assay with SK-OV-3 ovarian it was 4.09 µM; in the assay on OVCAR-8 ovarian, 3.79 µM; in the assay on A498 renal, 2.85 µM. The TGI in the assay on HCT-15 colon is 5.51 µM; in the assay with HT29 colon, 3.59 µM; in the assay on HL-60(TB) leukemia, 3.15 µM; with IGROV1 ovarian, 3.04 µM; in the assay with SF-268 CNS it was 3.87 µM; with KM12 colon, 3.73 µM. Besides, the TGI came out at 2.99 µM in the assay on NCI-H522 lung; 3.03 µM in the assay with LOX IMVI melanoma; 3.64 µM in the assay with SK-MEL-28 melanoma; 2.43 µM in the assay with HCT-116 colon; 3.55 µM in the assay on MDA-MB-435; 3.02 µM in the assay on MCF7 breast. The results for the TGI with OVCAR-3 ovarian and with HCC-2998 colon were 2.72 µM and 2.54 µM, respectively.
Regarding `O=C(O/N=c1/ccc(=O)/c(=N\OC(=O)c2ccccc2)c1=O)c1ccccc1`, the TGI with T-47D breast, in the assay with A549 NSCLC, with NCI-H23 lung, with SK-OV-3 ovarian, in the assay on OVCAR-8 ovarian and in the assay on A498 renal was greater than 100 µM in each case. Also, the TGI was greater than 100 µM with HCT-15 colon; greater than 100 µM with HT29 colon; 52.1 µM in the assay with HL-60(TB) leukemia; greater than 100 µM with IGROV1 ovarian; greater than 100 µM in the assay on SF-268 CNS; greater than 100 µM with KM12 colon. Further, the total growth inhibition concentration (TGI) in the assay with NCI-H522 lung, in the assay on LOX IMVI melanoma, in the assay on SK-MEL-28 melanoma, in the assay with HCT-116 colon, with MDA-MB-435 and with MCF7 breast was greater than 100 µM throughout. Also, the TGI in the assay with OVCAR-3 ovarian and in the assay on HCC-2998 colon was greater than 100 µM throughout.
For the molecule `C[C@H](c1ccccc1)n1c(N)c(-c2nc3ccccc3s2)c2ccc([N+](=O)[O-])cc2c1=O`, the TGI in the assay with T-47D breast is 17.6 µM; with A549 NSCLC, greater than 100 µM; in the assay with NCI-H23 lung, 6.66 µM; with SK-OV-3 ovarian, greater than 100 µM; in the assay on OVCAR-8 ovarian, greater than 100 µM; with A498 renal, 75.2 µM. The TGI was greater than 75.4 µM with HCT-15 colon; greater than 52.7 µM in the assay with HT29 colon; 36.6 µM in the assay with HL-60(TB) leukemia; 98.9 µM with IGROV1 ovarian; greater than 100 µM in the assay on SF-268 CNS; 61.2 µM with KM12 colon. Moreover, the TGI in the assay with NCI-H522 lung is greater than 19.7 µM; in the assay on LOX IMVI melanoma, greater than 66.6 µM; in the assay with SK-MEL-28 melanoma it was greater than 100 µM; in the assay on HCT-116 colon, 10.9 µM; in the assay on MDA-MB-435 it was greater than 79.7 µM; with MCF7 breast, 52.2 µM. The TGI was greater than 100 µM with OVCAR-3 ovarian and greater than 85.1 µM with HCC-2998 colon.
For the molecule `COc1ccc2c(C)cc(N/N=C/c3ccc(C)s3)nc2c1`, the TGI with T-47D breast was 26 µM; in the assay with A549 NSCLC it was 39.7 µM; in the assay with NCI-H23 lung, greater than 48.8 µM; in the assay with SK-OV-3 ovarian, 43.6 µM; with OVCAR-8 ovarian, 51.5 µM; in the assay with A498 renal it was 52.9 µM. The TGI in the assay on HCT-15 colon was 41.3 µM; in the assay with HT29 colon it was 16.7 µM; with HL-60(TB) leukemia, greater than 56.2 µM; in the assay with IGROV1 ovarian, 37.9 µM; in the assay on SF-268 CNS, greater than 100 µM; in the assay on KM12 colon, greater than 57 µM. Further, the TGI was greater than 100 µM with NCI-H522 lung; 11.1 µM with LOX IMVI melanoma; greater than 100 µM with SK-MEL-28 melanoma; greater than 46.4 µM with HCT-116 colon; greater than 52.4 µM in the assay with MDA-MB-435; 25.3 µM with MCF7 breast. The results for the total growth inhibition concentration (TGI) in the assay on OVCAR-3 ovarian and in the assay on HCC-2998 colon were 8.88 µM and 19.6 µM, respectively.
As to `CC(C)[C@@H]1CC[C@@H](C)C[C@H]1OC(=O)/C=C1\C(C(=O)O[C@@H]2C[C@H](C)CC[C@H]2C(C)C)[C@H]2C=C[C@@H]1O2` (stereo not given in full), the TGI in the assay on T-47D breast, in the assay with A549 NSCLC, in the assay with NCI-H23 lung, with SK-OV-3 ovarian, with OVCAR-8 ovarian and with A498 renal was greater than 100 µM in each case. Moreover, the TGI with HCT-15 colon was greater than 100 µM; with HT29 colon, greater than 100 µM; in the assay with HL-60(TB) leukemia, 76.1 µM; with IGROV1 ovarian, greater than 100 µM; in the assay with SF-268 CNS, greater than 100 µM; in the assay with KM12 colon, greater than 100 µM. For the same molecule, the TGI was greater than 100 µM in the assay with NCI-H522 lung; greater than 100 µM in the assay on LOX IMVI melanoma; greater than 100 µM in the assay on SK-MEL-28 melanoma; greater than 100 µM in the assay on HCT-116 colon; greater than 100 µM in the assay on MDA-MB-435; 71.6 µM in the assay on MCF7 breast. The TGI in the assay with OVCAR-3 ovarian and in the assay with HCC-2998 colon was greater than 100 µM each time.
With `Clc1cc(OCc2nn3c(Cc4ccccc4)nnc3s2)c(Cl)cc1OCc1nn2c(Cc3ccccc3)nnc2s1`, the TGI is greater than 100 µM with T-47D breast; greater than 100 µM in the assay with A549 NSCLC; greater than 100 µM in the assay with NCI-H23 lung; 82.1 µM in the assay with SK-OV-3 ovarian; greater than 100 µM in the assay with OVCAR-8 ovarian; 88.5 µM in the assay on A498 renal. For the same molecule, the TGI in the assay on HCT-15 colon, in the assay with HT29 colon, with HL-60(TB) leukemia, with IGROV1 ovarian, with SF-268 CNS and in the assay with KM12 colon was greater than 100 µM throughout. The TGI in the assay with NCI-H522 lung, with LOX IMVI melanoma, in the assay with SK-MEL-28 melanoma, in the assay with HCT-116 colon, in the assay with MDA-MB-435 and with MCF7 breast was greater than 100 µM throughout. Further, the TGI in the assay with OVCAR-3 ovarian and with HCC-2998 colon was greater than 100 µM in each case.
